Measurements published in ChEMBL document CHEMBL2321844, “Discovery of nosokophic acid, a predicted intermediate of moenomycins, from nosokomycin-producing Streptomyces sp. K04-0144” (2013).
Converted amounts (≈) assume the structure as drawn. The source made the active and inactive calls. No cut-off for these calls is given here.

Legend:
Type in all cases: functional
Staphylococcus aureus [1] = experiment: Antimicrobial activity against methicillin-resistant Staphylococcus aureus after 20 hrs by liquid microdilution method
Staphylococcus aureus [2] = experiment: Potentiation of streptomycin antimicrobial activity against methicillin-resistant Staphylococcus aureus at 10 ug/ml after 20 hrs by liquid microdilution method
Staphylococcus aureus [3] = experiment: Potentiation of tetracycline antimicrobial activity against methicillin-resistant Staphylococcus aureus at 10 ug/ml after 20 hrs by liquid microdilution method

| SMILES | Activity (Staphylococcus aureus [1]) | MIC (Staphylococcus aureus [1]) | fractional inhibitory concentration index (FICI) (Staphylococcus aureus [2]) | fractional inhibitory concentration index (FICI) (Staphylococcus aureus [3]) |
| --- | --- | --- | --- | --- |
| CC(C)=CCC/C(C)=C/CC/C(C)=C\COC(COP(=O)(O)O[C@H]1O[C@H](C(N)=O)[C@H](O)[C@H](O)[C@H]1O)C(=O)O (some centres not stated) | inactive |  |  |  |
| C[C@@H](O)[C@H]1C(=O)N2C(C(=O)O)=C(SCCNC=N)C[C@H]12 [IMIPENEM ANHYDROUS] |  | 16 µg/mL (≈ 53.4 µM) |  |  |
| CN[C@@H]1[C@H](O[C@H]2[C@H](O[C@H]3[C@H](O)[C@@H](O)[C@H](N=C(N)N)[C@@H](O)[C@@H]3N=C(N)N)O[C@@H](C)[C@]2(O)C=O)O[C@@H](CO)[C@H](O)[C@H]1O [STREPTOMYCIN] |  | 2 µg/mL (≈ 3.44 µM) | 1 |  |
| CN(C)[C@@H]1C(O)=C(C(N)=O)C(=O)[C@@]2(O)C(O)=C3C(=O)c4c(O)cccc4[C@@](C)(O)[C@H]3C[C@@H]12 [TETRACYCLINE] |  | 32 µg/mL (≈ 72 µM) |  | 1 |
| CN[C@H](CC(C)C)C(=O)N[C@H]1C(=O)N[C@@H](CC(N)=O)C(=O)N[C@H]2C(=O)N[C@H]3C(=O)N[C@H](C(=O)N[C@H](C(=O)O)c4cc(O)cc(O)c4-c4cc3ccc4O)[C@H](O)c3ccc(c(Cl)c3)Oc3cc2cc(c3O[C@@H]2O[C@H](CO)[C@@H](O)[C@H](O)[C@H]2O[C@H]2C[C@](C)(N)[C@H](O)[C@H](C)O2)Oc2ccc(cc2Cl)[C@H]1O [VANCOMYCIN] |  | 0.5 µg/mL (≈ 0.345 µM) |  |  |
